Test results reported in article PMC6934184, “Selective DNA-PKcs inhibition extends the therapeutic index of localized radiotherapy and chemotherapy” (The Journal of Clinical Investigation, 2019).

Biological target: T1, MAP3K9 (MLK1) (Homo sapiens, UniProt P80192)
T1 construct: purchased Thermo Fisher Scientific (Life Technologies) SelectScreen
Assay: SelectScreen Z'LYTE
Assay type: biochemical
How it was run: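 NU5455 was profiled across the SelectScreen Broad panel of kinase activity and binding assays. Z'LYTE reactions such as CSF1R ran at apparent Km ATP, while the Adapta CAMK1 assay used ATP listed as 10. Values are given as percent.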

T1 sequence (P80192 whole entry): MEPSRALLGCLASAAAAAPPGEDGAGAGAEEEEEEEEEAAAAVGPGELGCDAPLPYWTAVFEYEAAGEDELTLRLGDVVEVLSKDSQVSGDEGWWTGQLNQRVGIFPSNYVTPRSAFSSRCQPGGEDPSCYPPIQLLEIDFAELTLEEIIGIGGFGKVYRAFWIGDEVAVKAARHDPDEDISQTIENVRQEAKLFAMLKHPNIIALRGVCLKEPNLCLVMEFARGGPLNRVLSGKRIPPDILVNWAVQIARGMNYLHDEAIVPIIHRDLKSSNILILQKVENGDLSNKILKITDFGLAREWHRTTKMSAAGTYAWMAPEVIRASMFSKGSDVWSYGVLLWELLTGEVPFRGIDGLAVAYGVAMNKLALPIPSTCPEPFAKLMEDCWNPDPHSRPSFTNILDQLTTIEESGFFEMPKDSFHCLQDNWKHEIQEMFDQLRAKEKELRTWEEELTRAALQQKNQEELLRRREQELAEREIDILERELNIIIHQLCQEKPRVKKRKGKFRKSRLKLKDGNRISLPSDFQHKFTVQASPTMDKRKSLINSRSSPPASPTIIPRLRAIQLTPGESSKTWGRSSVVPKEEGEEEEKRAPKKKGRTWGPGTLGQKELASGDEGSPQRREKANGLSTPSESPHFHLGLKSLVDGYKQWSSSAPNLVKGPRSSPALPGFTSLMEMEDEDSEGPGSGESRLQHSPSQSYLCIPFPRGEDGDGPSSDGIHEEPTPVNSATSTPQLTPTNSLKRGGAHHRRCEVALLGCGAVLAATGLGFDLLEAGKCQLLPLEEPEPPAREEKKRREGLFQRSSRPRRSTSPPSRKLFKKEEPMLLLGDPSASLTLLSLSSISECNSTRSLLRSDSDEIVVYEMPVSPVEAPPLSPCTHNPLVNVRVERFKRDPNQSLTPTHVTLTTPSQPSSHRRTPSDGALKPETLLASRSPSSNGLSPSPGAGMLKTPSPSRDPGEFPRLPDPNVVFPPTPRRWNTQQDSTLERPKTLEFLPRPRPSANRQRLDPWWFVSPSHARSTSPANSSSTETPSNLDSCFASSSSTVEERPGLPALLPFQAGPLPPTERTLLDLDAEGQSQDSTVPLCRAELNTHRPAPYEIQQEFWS

Compound: CN(C(=O)CN1CCOCC1)c1ccc2sc3c(-c4cccc5c(=O)cc(N6CC7CCC(C6)O7)oc45)cccc3c2c1 [NU5455]
- inhibition at 1 µM: -0.5%
